In BindingDB's records for doi:10.1021/jm0502182 (Institute of Cancer Research, 2005):

Test: Inhibitory activity against carboxypeptidase G2 from pseudomonas RS16

SMILES | Ki [µM]
O=C(O)CC[C@H](NC(=O)c1c(F)c(F)c(N(CCCl)CCCl)c(F)c1F)C(=O)O [(S)-2-{4-[Bis-(2-chloro-ethyl)-amino]-2,3,5,6-tetrafluoro-benzoylamino}-pentanedioic acid] | 127
O=C(O)CC[C@H](NC(=O)c1c(F)c(F)c(N(CCI)CCI)c(F)c1F)C(=O)O [(S)-2-{4-[Bis-(2-iodo-ethyl)-amino]-2,3,5,6-tetrafluoro-benzoylamino}-pentanedioic acid] | 276
